Earlier results on 1 compound are cited in patent US9480691B1, “Topical liquid containing refined peanut oil for treating skin proliferation or inflammation disorders” (Hill Dermaceuticals, Inc., priority 2009, dated 2016).

Structures are written as SMILES.

This series has as its system hypothalamus-pituitary-adrenal (HPA) axis. The conditions noted are these: at effective and prescribed doses.

In the case of `CCC(=O)O[C@]1(C(=O)CCl)[C@@H](C)C[C@H]2[C@@H]3CCC4=CC(=O)C=C[C@]4(C)[C@@]3(F)[C@@H](O)C[C@@]21C` [clobetasol propionate, (11β,16β)-21-chloro-9-fluoro-11-hydroxy-16-methyl-17-(1-oxo-propoxy)pregna-1,4-diene,3,10-dione], the “effect on HPA axis” value is “suppress the hypothalamus-pituitary-adrenal (HPA) axis”.
